Laboratory results published in the C3SDB collision cross section collection.
Counter-ions that a name gives are not always drawn.

Experiments:
[1] = instrument: DT, stepped-field
[2] = instrument: DT, single field, calibrated with Agilent tune mix (Agilent)

| collision cross section (N2) ([2]; [M+H]+) | collision cross section (N2) ([2]; [M-H]-) | SMILES | other results |
| --- | --- | --- | --- |
| 303.8 Å² | 294.98 Å² | CC[C@H](C)[C@@H]1NC(=O)[C@H](Cc2ccc(O)cc2)NC(=O)[C@@H](N)CSSC[C@@H](C(=O)N2CCC[C@H]2C(=O)N[C@@H](CC(C)C)C(=O)NCC(N)=O)NC(=O)[C@H](CC(N)=O)NC(=O)[C@H](CCC(N)=O)NC1=O [Oxytocin] | – |
| – | 163.36 Å² | CCCCCCCCCCCCCCCC=O [Palmitaldehyde] | – |
| 217.3 Å² | 211.81 Å² | CC1=C(C/C=C(\C)CCC[C@H](C)CCC[C@H](C)CCCC(C)C)C(=O)c2ccccc2C1=O [Phylloquinone] | – |
| – | 183.17 Å² | CC(C)CCCC(C)CCCC(C)CCCC(C)CC(=O)O (stereo not drawn) [Phytanic acid] | – |
| 196.2 Å² | 180.68 Å² | CCCCCCCCCCCCCC[C@@H](O)[C@@H](O)[C@@H](N)CO [Phytosphingosine] | – |
| – | 178.79 Å² | CC(C)CCCC(C)CCCC(C)CCCC(C)C(=O)O (stereo not drawn) [Pristanic acid] | collision cross section (N2) ([2]; [M+Na]+): 206.3 Å² |
| 148.2 Å² | – | NCCCNCCCCNCCCN [Spermine] | – |
| 188 Å² | – | CCCCCCCCCCCCCCC[C@@H](O)[C@@H](N)CO [Sphinganine] | – |
| 186 Å² | – | CCCCCCCCCCCCC/C=C/[C@@H](O)[C@@H](N)CO [Sphingosine] | – |
| 302.9 Å² | 301.81 Å² | CCCCCCCCCCCCCCCCCC(=O)SCCNC(=O)CCNC(=O)[C@H](O)C(C)(C)COP(=O)(O)OP(=O)(O)OC[C@H]1O[C@@H](n2cnc3c(N)ncnc32)[C@H](O)[C@@H]1OP(=O)(O)O [Stearoyl-CoA] | – |
| – | 197.93 Å² | CCCCCCCCCCCCCCCCCCCCCCCC(=O)O [Tetracosanoic acid] | – |
| 162.4 Å² | 160.3 Å² | Cc1ncc(C[n+]2csc(CCO)c2C)c(N)n1 [Thiamine] | – |
| 285.1 Å² | 267.79 Å² | O=C(O)CCC1=C(CC(=O)O)c2cc3nc(cc4[nH]c(cc5[nH]c(cc1n2)c(CC(=O)O)c5CCC(=O)O)c(CC(=O)O)c4CCC(=O)O)C(CC(=O)O)=C3CCC(=O)O [Uroporphyrin I] | – |
| 216.1 Å² | 210.94 Å² | CC1=C(C/C=C(\C)CCC[C@H](C)CCC[C@H](C)CCCC(C)C)C(=O)c2ccccc2C1=O [Vitamin K1] | – |
| 170.7 Å² | 173.07 Å² | CC/C=C\C/C=C\C/C=C\CCCCCCCC(=O)O [alpha-Linolenic acid] | – |
| 216.6 Å² | 208.52 Å² | Cc1c(C)c2c(c(C)c1O)CC[C@@](C)(CCC[C@H](C)CCC[C@H](C)CCCC(C)C)O2 [alpha-Tocopherol] | – |
| 162.6 Å² | – | N[C@@H](CCC(=O)N[C@@H](CCC(=O)O)C(=O)O)C(=O)O [gamma-L-Glutamyl-L-glutamic acid] | collision cross section (N2) ([2]; [M-H2O-H]-): 152.43 Å² |
| – | 141.13 Å² | CCCCC/C=C/C(=O)O [trans-2-Octenoic acid] | – |

The remaining lines, values behind:

| SMILES | collision cross section (N2) ([2]; [M+H]+) | collision cross section (N2) ([2]; [M-H]-) | other results |
| --- | --- | --- | --- |
| Nc1ncnc2c1ncn2[C@H]1C[C@H](O)[C@@H](CO)O1 [2'-Deoxyadenosine] | – | – | collision cross section (N2) ([1]; [M+H]+): 162.73 Å²; collision cross section (N2) ([1]; [M+Na]+): 166.67 Å² |
| N[C@@H](Cc1ccccc1Cl)C(=O)O [2-Chloro-L-Phenylalanine] | – | – | collision cross section (N2) ([1]; [M+H]+): 148.86 Å² |
| Cc1ccccc1C(=O)NCC(=O)O [2-Methylhippuric Acid] | – | – | collision cross section (N2) ([1]; [M+Na]+): 156.6 Å² |
| CC(C)=CC(=O)SCCNC(=O)CCNC(=O)C(O)C(C)(C)COP(=O)(O)OP(=O)(O)OC[C@H]1O[C@@H](n2cnc3c(N)ncnc32)[C@H](O)[C@@H]1OP(=O)(O)O (stereo partly drawn) [3-Methylcrotonyl-CoA] | – | – | collision cross section (N2) ([1]; [M+H]+): 180.03 Å² |
| CC(=O)NCCCC(=O)O [4-Acetamidobutanoic Acid] | – | – | collision cross section (N2) ([1]; [M+Na]+): 138.57 Å² |
| NC(N)=NCCCC(=O)O [4-Guanidinobutanoic Acid] | – | – | collision cross section (N2) ([1]; [M+H]+): 132.8 Å² |
| N[C@@H](Cc1c[nH]c2ccc(O)cc12)C(=O)O [5-Hydroxy-L-Tryptophan] | – | – | collision cross section (N2) ([1]; [M+H]+): 157.88 Å²; collision cross section (N2) ([1]; [M+Na]+): 156.47 Å² |
| C[C@@H]1OC(O)[C@@H](O)[C@H](O)[C@@H]1O (stereo partly drawn) [6-Deoxy-L-galactose] | – | – | collision cross section (N2) ([1]; [M+Na]+): 147.32 Å² |
| O=C(O)c1ccc(=O)[nH]c1 [6-Hydroxynicotinate] | – | – | collision cross section (N2) ([1]; [M+H]+): 136.43 Å² |
| O=C(O)[C@H](O)[C@@H](O)[C@H](O)[C@H](O)COP(=O)(O)O [6-Phosphogluconic Acid] | – | – | collision cross section (N2) ([1]; [M+Na]+): 167.16 Å² |
| CCCCC/C=C\C=C\C(O)CCCCCCCC(=O)O (stereo not drawn) [9-HODE] | – | – | collision cross section (N2) ([1]; [M+Na]+): 189.14 Å² |
| CCCCCC(=O)/C=C/C=C/CCCCCCCC(=O)O [13-OxoODE] | – | – | collision cross section (N2) ([1]; [M+H]+): 179.4 Å²; collision cross section (N2) ([1]; [M+Na]+): 193.37 Å² |
| CCCCCC1OC1C/C=C\C/C=C\C/C=C\CCCC(=O)O (stereo not drawn) [14(15)-EET] | – | – | collision cross section (N2) ([1]; [M+H]+): 182.43 Å²; collision cross section (N2) ([1]; [M+Na]+): 187.07 Å² |
| CCCCCCCCCCCCCCCCCC(=O)OC[C@@H](O)COP(=O)([O-])OCC[N+](C)(C)C [18:0 Lyso PC] | – | – | collision cross section (N2) ([1]; [M+Na]+): 243.07 Å² |
| CCOCN(C(=O)CCl)c1c(C)cccc1CC [Acetochlor] | – | – | collision cross section (N2) ([1]; [M+H]+): 160.09 Å²; collision cross section (N2) ([1]; [M+Na]+): 174.6 Å² |
| CC(=O)Oc1ccccc1C(=O)O [Acetylsalicylic Acid] | – | – | collision cross section (N2) ([1]; [M+Na]+): 146.8 Å² |
| Nc1ncnc2c1ncn2[C@@H]1O[C@H](COP(=O)(O)OP(=O)(O)O)[C@@H](O)[C@H]1O [Adenosine 5' Diphosphate] | – | – | collision cross section (N2) ([1]; [M+H]+): 188.61 Å²; collision cross section (N2) ([1]; [M+Na]+): 196.92 Å² |
| NC(=O)NC1NC(=O)NC1=O (stereo not drawn) [Allantoin] | – | – | collision cross section (N2) ([1]; [M+Na]+): 145.61 Å² |
| O=C1c2ccccc2C(=O)c2ccccc21 [Anthraquinone] | – | – | collision cross section (N2) ([1]; [M+H]+): 141.89 Å² |
| CCCCCCCCCCCCCCCCCCCC(=O)O [Arachidic Acid] | – | – | collision cross section (N2) ([1]; [M+Na]+): 199.97 Å² |
| C[C@@H]1O[C@@H](O[C@H]2C(=O)c3c(O)cc(O)cc3O[C@@H]2c2ccc(O)c(O)c2)[C@H](O)[C@H](O)[C@H]1O [Astilbin] | – | – | collision cross section (N2) ([1]; [M+H]+): 205.87 Å²; collision cross section (N2) ([1]; [M+Na]+): 212.64 Å² |
| C=C1C2CCC(C2)C1(C)C (stereo not drawn) [Camphene] | – | – | collision cross section (N2) ([1]; [M+H]+): 130.63 Å²; collision cross section (N2) ([1]; [M+Na]+): 133.01 Å² |

| SMILES | collision cross section (N2) ([2]; [M+H]+) | collision cross section (N2) ([2]; [M-H]-) | other results |
| --- | --- | --- | --- |
| NC(=O)N[C@@H](CC(=O)O)C(=O)O [N-carbamoyl-L-aspartate] | – | – | collision cross section (N2) ([2]; [M+Na]+): 139.1 Å² |
| O=C([O-])c1cccnc1 [Nicotinate] | 124 Å² | – | – |
| O=C(O)CNC(=O)Cc1ccccc1 [Phenylacetylglycine] | – | 147.23 Å² | – |
| CCCCC[C@H](O)/C=C/[C@H]1[C@H](O)CC(=O)[C@@H]1CCCCCCC(=O)O [Prostaglandin E1] | – | – | collision cross section (N2) ([2]; [M+Na]+): 198.3 Å²; collision cross section (N2) ([2]; [M-H2O-H]-): 181.94 Å² |
| C=Cc1c(C)c2cc3[nH]c(cc4nc(cc5nc(cc1[nH]2)C(C)=C5CCC(=O)O)C(CCC(=O)O)=C4C)c(C)c3C=C [Protoporphyrin IX] | 241.4 Å² | 245.23 Å² | – |
| N#C[C@H](O[C@@H]1O[C@H](CO)[C@@H](O)[C@H](O)[C@H]1O)c1ccccc1 [Prunasin] | – | – | collision cross section (N2) ([2]; [M+Na]+): 173.7 Å² |
| Cc1ncc(COP(=O)(O)O)c(C=O)c1O [Pyridoxal 5'-phosphate] | 151.4 Å² | 146.34 Å² | – |
| O=C(O)C1(O)C[C@@H](O)C(O)[C@H](O)C1 (stereo partly drawn) [Quinate] | – | 132.25 Å² | collision cross section (N2) ([2]; [M+Na]+): 150.9 Å² |
| OC[C@@H](O)C(O)[C@@H](O)CO (stereo partly drawn) [Ribitol] | – | – | collision cross section (N2) ([2]; [M+Na]+): 136.3 Å² |
| Cc1cn([C@@H]2O[C@H](CO)[C@@H](O)[C@H]2O)c(=O)[nH]c1=O [Ribothymidine] | – | 153.52 Å² | collision cross section (N2) ([2]; [M+Na]+): 165.6 Å² |
| O=C(/C=C/c1ccc(O)c(O)c1)O[C@H](Cc1ccc(O)c(O)c1)C(=O)O [Rosmarinic Acid] | – | 170.26 Å² | collision cross section (N2) ([2]; [M+Na]+): 195.6 Å² |
| COc1cc(/C=C/CO)cc(OC)c1O [Sinapyl alcohol] | – | 146.84 Å² | collision cross section (N2) ([2]; [M+H-H2O]+): 136.5 Å² |
| CNCC(O)c1ccc(O)cc1 (stereo not drawn) [Synephrine] | – | – | collision cross section (N2) ([2]; [M+H-H2O]+): 134.4 Å² |
| CC(=O)N[C@H]1[C@@H](OP(=O)(O)OP(=O)(O)OC[C@H]2O[C@@H](n3ccc(=O)[nH]c3=O)[C@H](O)[C@@H]2O)O[C@H](CO)[C@@H](O)[C@@H]1O [UDP-N-acetylglucosamine] | 208.8 Å² | 222 Å² | – |
| O=c1ccn([C@@H]2O[C@H](COP(=O)(O)OP(=O)(O)OP(=O)(O)O)[C@@H](O)[C@H]2O)c(=O)[nH]1 [Uridine 5'-triphosphate] | – | 178.55 Å² | – |
| COc1cc(C=O)ccc1O [Vanillin] | 129.7 Å² | 124.3 Å² | – |
| O=C(O)c1cc(=O)c2cccc(O)c2[nH]1 [Xanthurenic acid] | 140.5 Å² | 132.51 Å² | – |
| Nc1nc(=O)c2ncn([C@@H]3O[C@@H]4COP(=O)(O)O[C@H]4[C@H]3O)c2[nH]1 [cGMP] | 172.8 Å² | – | – |
| O=C(O)[C@H]1C[C@@H](O)CN1 [cis-4-Hydroxy-D-proline] | 128.4 Å² | 122.02 Å² | – |
| OC1C(O)C(O)C(O)C(O)C1O (stereo not drawn) [myo-Inositol] | – | 128.61 Å² | collision cross section (N2) ([2]; [M+Na]+): 148.2 Å² |
| CC(=O)[C@H]1CC[C@H]2[C@@H]3CC=C4C[C@@H](OS(=O)(=O)O)CC[C@]4(C)[C@H]3CC[C@]12C [pregnenolone sulfate] | – | 203.91 Å² | – |
| O=C(O)/C=C/c1ccccc1 [trans-cinnamate] | 125.3 Å² | – | – |
